What was measured:
eukaryotic cell lines = conditions: cited from earlier work
[1] = tested on: human primary fibroblasts; test: In vitro analysis of ATP levels in human epidermal fibroblasts (ViaLight Plus ATP assay); assay type: cell-based
Description: The biological endpoint in the example is the energy level of each individual cell. This is determined quantitatively by the level of adenosine triphosphate (ATP), which is the common energy storage molecule in human cells.
Primary epidermal fibroblast were isolated from human foreskin and cultured in DMEM with 10% fetal-bovine serum-(FBS), penicillin, and streptomycin. The cells were maintained in a growth chamber at 37° C. and 5% CO2 and used for these kinds of experiments between passage 8 and 12. Fibroblasts were transferred to 96 well plates and allowed to attach for 5 h in standard medium before a serum starvation with 1% FBS over 4 days was initiated.
Epidermal fibroblasts were treated between 4 h and 48 h with vitamin K1 at concentrations up to 44 μM in DMEM. After variing incubation time, the ATP-assay was performed with the High Sensitivy Cell Proliferation Assay (Via light Plus, Cambrex). The procedure was done according to the manufacturers recommendations. Briefly, the culture plate was removed from the incubator and was allowed to cool down to room temperature for at least 5 minutes, then 50 μl of Cell Lysis Reagent were added to each well and incubated 10 minutes, 100 μl of AMR PLUS were added to each well and incubated for 2 minutes at room temperature. The plate was analysed in a luminometer.

[2] = 45 mg/day, women with osteoporosis; cited from earlier work

Row | Molecule | stimulation of cell growth via transplasma membrane electron transport (eukaryotic cell lines) | incubation time at which maximum stimulation of ATP levels is reached ([1]; 2 μM vitamin K1, serum-starved fibroblasts, FIG. 1) | concentration with the most promising induction of ATP levels ([1]; dose-response at two time points, no correlation to the time point, FIG. 2) | effect on loss of bone mineral density [2] | effect on risk of bone fractures [2]
1 | COC1=C(OC)C(=O)C(C/C=C(\C)CC/C=C(\C)CC/C=C(\C)CC/C=C(\C)CC/C=C(\C)CC/C=C(\C)CC/C=C(\C)CC/C=C(\C)CC/C=C(\C)CCC=C(C)C)=C(C)C1=O [coenzyme Q10] | able to stimulate these cells |  |  |  | 
2 | CC1=C(C/C=C(\C)CCC[C@H](C)CCC[C@H](C)CCCC(C)C)C(=O)c2ccccc2C1=O [vitamin K1, phytomenadione] | no efficacy | about 16 h | 2 µM |  | 
3 | menaquinone [vitamin K2] |  |  |  | slow down but not prevent a progressive loss of bone mineral density | reduce the risk of bone fractures
